Source: patent US20240408057A1, “Composition for preventing or treating cachexia and muscle loss” (METAFINES.CO.LTD., priority 2023, published 2024)

Assays:
Type in all cases: cell-based, mouse
PDK-4 [1] = assay: PDK-4 expression (Western blot) in CCM-treated C2C12 myotubes; settings: for expression of PDK-4: C2C12 myotubes + CCM, 72 hours, comparison experiment with components alone and in combination; for expression level of PDK-4: C2C12 myotubes, differentiation medium:CCM 1:1, 72 hours, three predetermined concentrations, vs CCM control
Experimental: (§1) C2C12 cell line was dispensed into a 6-well plate at 4.0×10^5 cells/well and cultured in DMEM medium containing 10% fetal bovine serum (FBS) under 37° C. and 5% CO2 conditions for one day. When the cell density reached about 80%, the medium was replaced with a differentiation medium and the cells were cultured for additional 3 days. […] After culturing for 72 hours, the cells were collected and analyzed for PDK-4, which is a target marker, by Western blot and the results are summarized in FIG. 6.
(§2) A C2C12 cell line was dispensed into a 6-well plate at 4.0×10^5 cells/well, and then cultured in DMEM medium containing 10% fetal bovine serum (FBS) under 37° C. and 5% CO2 conditions for one day. When the cell density reached about 80%, the medium was replaced with a differentiation medium and the cells were cultured for additional 3 days.
Subsequently, MuRF1, Atrogin1, MyHC, Myogenin (muscle markers) and Calpain 3, PDK-4, and GDF-15 (other target markers for muscle related disease) were analyzed using Western blot, and the relative expression levels for the markers are shown in FIGS. 26 and 28.

Calpain 3 = Calpain 3 expression (Western blot) in CCM-treated C2C12 myotubes
Experimental: as §1
The experiment was performed in the same manner as in Experimental Example 3-1, except that Calpain 3 was analyzed as a target marker for Western blot, and the results are summarized in FIG. 7.
as §2

Myogenin [2] = assay: Myogenin expression (Western blot) in CCM-treated C2C12 myotubes; settings: 72 hours, compared to other experimental groups (components alone and in combination)
Experimental: (§3) A C2C12 cell line was dispensed into a 6-well plate at 4.0×10^5 cells/well, and then cultured in DMEM medium containing 10% fetal bovine serum (FBS) under 37° C. and 5% CO2 conditions for one day. When the cell density reached about 80%, the medium was replaced with a differentiation medium and the cells were cultured for additional 3 days. After confirming completion of differentiation of the cells, the cells were treated with a mixture, in which the differentiation medium and cancer-cell conditioned medium (CCM) were mixed at a 1:1 ratio, to form a control group, and simultaneously, a test group was set up by treating with the calcium salts of Preparation Examples 1 to 3 according to three predetermined concentrations.
as §2

MuRF1 [3] = assay: MuRF1 expression (Western blot) in CCM-treated C2C12 myotubes; settings: 72 hours, compared to other experimental groups (components alone and in combination)
Experimental: as §3, §2

Atrogin1 [4] = assay: Atrogin1 expression (Western blot) in CCM-treated C2C12 myotubes; settings: 72 hours, compared to other experimental groups (components alone and in combination)
Experimental: as §3, §2

GDF-15 = GDF-15 expression (Western blot) in CCM-treated C2C12 myotubes; settings: for expression of GDF-15: C2C12 myotubes + CCM, 72 hours, comparison experiment with components alone and in combination; for expression level of GDF-15: C2C12 myotubes, differentiation medium:CCM 1:1, 72 hours, three predetermined concentrations, vs CCM control
Experimental: as §1
The analysis was performed in the same manner as in Experimental Example 4-1 except for analyzing GDF-15 as a target marker for a Western blot, and the results are summarized in FIGS. 8 and 9.
The analysis was performed in the same manner as in Experimental Example 3-1 except for analyzing PDK-4 as a target marker for Western blot, and the results are summarized in FIGS. 10 and 11.
as §2

MyHC [5] = assay: MyHC expression (Western blot) in CCM-treated C2C12 myotubes; settings: 72 hours, compared to other experimental groups (components alone and in combination)
Experimental: as §3, §2

MuRF1 [6] = assay: MuRF1 expression (Western blot) in C2C12 myotubes treated with inducers (no CCM); settings: 50 μM, 72 hours, vs UCM
Experimental: (§4) A C2C12 cell line was dispensed into a 6-well plate at 4.0×10^5 cells/well, and then cultured in DMEM medium containing 10% fetal bovine serum (FBS) under 37° C. and 5% CO2 conditions for one day. When the cell density reached about 80%, the medium was replaced with a differentiation medium and the cells were cultured for additional 3 days to set up a normal control group, and simultaneously a test group was set up by treatment with WY-14643, which is a PDK-4 activator, at a concentration of 50 μM. […] Scale bars inserted in FIGS. 13A and 13B represent a horizontal length of 50 μm. Referring to FIG. 13, it was confirmed that the diameter of myotube cells decreased when treated with the PDK-4 activator (i.e., WY-14643), thereby inducing the cells to a state similar to that of cancer cachexia.
(§5) Subsequently, the expression of PDK-4, MuRF1, Atrogin1, MyHC, and Myogenin in the normal control group (UCM) and the activator-treated group (WY-14643) were analyzed by Western blot, and the results are shown in FIGS. 14A and 14B. […]
(§6) Subsequently, the expression of Calpain 3, MuRF1, Atrogin1, MyHC, and Myogenin in the normal control group (UCM), vehicle control group (scrambled siRNA), and Calpain 3 siRNA treated group was analyzed by Western blot, and the results are shown in FIGS. 16A and 16B. […]

C2C12 myotube cells [7] = assay: Myotube diameter of C2C12 myotubes treated with inducers (no CCM); settings: 72 hours
Experimental: as §4
A C2C12 cell line was dispensed into a 6-well plate at 4.0×10^5 cells/well, and then cultured in DMEM medium containing 10% fetal bovine serum (FBS) under 37° C. and 5% CO2 conditions for one day. […]
A C2C12 cell line was dispensed into a 6-well plate at 4.0×10^5 cells/well, and then cultured in DMEM medium containing 10% fetal bovine serum (FBS) under 37° C. and 5% CO2 conditions for one day. […] The myotube diameter was measured using Image J to confirm the changes in diameter of myotube cells, and the results are shown in FIG. 37B.

PDK-4 [8] = assay: PDK-4 expression (Western blot) in C2C12 myotubes treated with inducers (no CCM); settings: 50 μM, 72 hours, vs UCM
Experimental: as §4
Subsequently, the expression of PDK-4, MuRF1, Atrogin1, MyHC, and Myogenin in the normal control group (UCM) and the activator-treated group (WY-14643) were analyzed by Western blot, and the results are shown in FIGS. 14A and 14B.
as §2, with “days. […]” for “days.”

Myogenin [9] = assay: Myogenin expression (Western blot) in C2C12 myotubes treated with inducers (no CCM); settings: 50 μM, 72 hours, vs UCM
Experimental: as §4, §5, §6

MyHC [10] = assay: MyHC expression (Western blot) in C2C12 myotubes treated with inducers (no CCM); settings: 50 μM, 72 hours, vs UCM
Experimental: as §4, §5, §6

Atrogin1 [11] = assay: Atrogin1 expression (Western blot) in C2C12 myotubes treated with inducers (no CCM); settings: 50 μM, 72 hours, vs UCM
Experimental: as §4, §5, §6

C2C12 myotube cells [12] = assay: Myotube diameter (crystal violet, Image J) of CCM-treated C2C12 myotubes; settings: C2C12 myotubes + CCM 1:1, 72 hours, predetermined concentration; compared to CCM
Experimental: A C2C12 cell line was dispensed into a 6-well plate at 4.0×10^5 cells/well, and then cultured in DMEM medium containing 10% fetal bovine serum (FBS) under 37° C. and 5% CO2 conditions for one day. When the cell density reached about 80%, the medium was replaced with a differentiation medium and the cells were cultured for additional 3 days. […] The myotube diameter was measured using Image J from the above image, and the change in myotube cell diameter is summarized in FIG. 17B. A C2C12 cell line was dispensed into a 6-well plate at 4.0×10^5 cells/well, and then cultured in DMEM medium containing 10% fetal bovine serum (FBS) under 37° C. and 5% CO2 conditions for one day. When the cell density reached about 80%, the medium was replaced with a differentiation medium and the cells were cultured for additional 3 days. […] The myotube diameter was measured using Image J from the above images, and the changes in myotube cell diameter are summarized in FIG. 24B.

[13] = C2C12 myotubes + CCM, 72 hours, compared to other experimental groups (components alone and in combination)
[14] = C2C12 myotubes, differentiation medium:CCM 1:1, 72 hours, three predetermined concentrations, vs CCM control

| SMILES | expression of PDK-4 (PDK-4 [1]) | expression level of PDK-4 (PDK-4 [1]) | expression level of Calpain 3 (Calpain 3; [13]) | expression level of Calpain 3 (Calpain 3; [14]) | expression of Myogenin (Myogenin [2]) | expression of MuRF1 (MuRF1 [3]) | expression of Atrogin1 (Atrogin1 [4]) | expression of GDF-15 (GDF-15) | expression level of GDF-15 (GDF-15) | expression of MyHC (MyHC [5]) | diameter of myotube cells (C2C12 myotube cells [12]) | other results |
| --- | --- | --- | --- | --- | --- | --- | --- | --- | --- | --- | --- | --- |
| CC(C)CC(N)C(=O)[O-].O=C1OC(C(O)CO)C([O-])=C1O.[Ca+2] (centres unmarked) [Preparation Example 2, calcium salts of ascorbic acid and leucine] | inhibited | expression was inhibited | higher expression level | decrease in expression was inhibited | excellent effect of inhibiting the decrease of expression | excellent effect of inhibiting the increase of expression | excellent effect of inhibiting the increase of expression | inhibited | expression was inhibited | excellent effect of inhibiting the decrease of expression |  |  |
| CC(C)CC(N)C(=O)[O-].O=C([O-])C(Cl)Cl.[Ca+2] (centres unmarked) [Preparation Example 3, calcium salts of dichloroacetic acid and leucine] | inhibited | expression was inhibited | higher expression level | decrease in expression was inhibited | excellent effect of inhibiting the decrease of expression | excellent effect of inhibiting the increase of expression | excellent effect of inhibiting the increase of expression | inhibited | expression was inhibited | excellent effect of inhibiting the decrease of expression |  |  |
| Cc1cccc(Nc2cc(Cl)nc(SCC(=O)O)n2)c1C [WY-14643] |  |  |  |  |  |  |  |  |  |  |  | expression of MuRF1 (MuRF1 [6]): up-regulated; diameter of myotube cells (C2C12 myotube cells [7]; 50 μM, vs normal control (UCM)): decreased; expression of PDK-4 (PDK-4 [8]): up-regulated; expression of Myogenin (Myogenin [9]): down-regulated; expression of MyHC (MyHC [10]): down-regulated; expression of Atrogin1 (Atrogin1 [11]): up-regulated |
| O=C1O[C@H]([C@@H](O)CO)C(O)=C1O [ascorbic acid, reference compound] |  |  |  |  |  |  |  |  |  |  | increased |  |
| C[C@@H]1C[C@H]2[C@@H]3CCC4=CC(=O)C=C[C@]4(C)[C@@]3(F)[C@@H](O)C[C@]2(C)[C@@]1(O)C(=O)CO [dexamethasone] |  |  |  |  |  |  |  |  |  |  |  | treatment concentration from which the myotube diameter started to decrease (C2C12 myotube cells [7]): ≥ 1 µM |
| O=C(O)C(Cl)Cl [dichloroacetic acid, reference compound] |  |  |  |  |  |  |  |  |  |  | increased |  |
